Data on 1 substance can be found in patent US8957022B2, “Multimeric tie 2 agonists and uses thereof in stimulating angiogenesis” (Sunnybrook Health Sciences Centre, priority 2006, dated 2015).

Common to all, as to assay type: cell-based, human
For assay [1], the system named is MAPK, AKT and eNOS. As to the kind of experiment: Phosphorylation of downstream signalling proteins in HUVEC (immunoblot). The protocol:
Having established that Vasculotide was able to bind Tie 2 (see Example 2), the ability of Vasculotide, when clustered with avidin in a 4:1 ratio (Vasculotide:avidin), to activate the Tie 2 receptor was tested by examining several well established downstream signalling pathways in human umbilical vein endothelial cells (HUVEC) (Cambrex, N.J.). Such signalling pathways are described in, for example, Kim, I. et al. (2000) Circ. Res. 9:952-959; Fujikawa, K. et al. (1999) Exp. Cell. Res. 2:663-672; Babaei, S. et al. (2003) Am. J. Pathol. 6:1927-1936.
HUVEC were grown on 6-well or 10 cm plates (Nunc) coated with gelatin (Sigma). HUVEC were cultured in F12 growth medium containing 10% fetal bovine serum (FBS), 0.1 mg/ml heparin sulphate, 1× penicillin, 1× streptomycin, 1× glutamine, VEGF 10 ng/ml, EGF 10 ng/ml, bFGF 5 ng/ml. All HUVEC were used between passage 3-9.
HUVEC were stimulated with one of either Ang 1 (R&D Systems), Vasculotide, avidin or clustered Vasculotide (preclustered with a 4:1 molar ratio of peptide:avidin in PBS for 2 hours at 4° C.) at various doses. Stimulations with Vasculotide were performed in full serum containing growth media for 15 minutes unless otherwise indicated. Cell lysate preparations and immunoblot analysis were performed by standard methods. […]

The test system of assay [2] is focal adhesion kinase (FAK). As to the kind of experiment: FAK activation in HUVEC (pY397 FAK immunoblot). As to conditions: time course. The method, then: HUVEC were stimulated with one of either Ang 1 (R&D Systems), Vasculotide, avidin or clustered Vasculotide (preclustered with a 4:1 molar ratio of peptide:avidin in PBS for 2 hours at 4° C.) at various doses. Stimulations with Vasculotide were performed in full serum containing growth media for 15 minutes unless otherwise indicated. Cell lysate preparations and immunoblot analysis were performed by standard methods. Antibodies used for immunoblotting (in this and/or subsequent Examples) were monoclonal anti Tie 2 (Pharminogen), polyclonal anti pY992 Tie 2, (Cell Signaling Technology), polyclonal anti MAPK (Cell Signaling Technology), monoclonal anti phospho MAPK (Cell Signaling Technology), polyclonal anti AKT (Cell Signaling Technology), polyclonal anti pS473 AKT (Cell Signaling Technology), monoclonal anti pS1177 eNOS (BD Biosciences), polyclonal anti pY397 FAK (Biosource), polyclonal anti FAK (Santa Cruz), polyclonal anti smooth muscle actin-Cy3 direct conjugate (Dako), polyclonal anti PECAM (Pharminogen) and polyclonal anti smooth muscle actin (Sigma).
To examine Tie 2 activation kinetics, HUVEC were stimulated with native Ang 1 or clustered Vasculotide for various times. Stimulation was performed in 10% FBS. […]

Assay [3] has as its system MMP2. Description: Gelatin zymography of HUVEC conditioned media. The following applies: HUVEC, 0.1% FBS, 16 h, various concentrations. The method, then: In vivo, ECs can not migrate until they secrete enzymes necessary to break down components of the extra cellular matrix. Gelatin zymography was employed to determine if clustered Vasculotide promoted secretion of MMP2. To perform the zymography, HUVEC were cultured in F12 media plus 0.1% FBS and stimulated for 16 h with VEGF, unclustered Vasculotide or clustered Vasculotide at various concentrations. Conditioned media was centrifuged to remove cellular debris and prepared for gel electrophoresis using non-reducing conditions. Gels were washed twice for 30 minutes in 2.5% Triton X-100 to remove sodium dodecyl sulfate and were then incubated in substrate buffer (50 mmol/L Tris-HCl, pH 8.8, 5 mmol/L CaCl2) for 16 hours at 37° C. Gels were then stained with 0.5% Coomassie blue in 30% methanol/10% acetic acid for 2 hours at room temperature and destained in 50% methanol/10% acetic acid. The presence of metalloproteinases was indicated by unstained proteolytic zones in the gel.

In the case of “clustered Vasculotide: Vasculotide clustered with avidin in a 4:1 ratio, an obligate tetrameric compound”, in assay [1] (10% FBS), the “pMAPK and pAKT in the time course” value was “marked increases in pMAPK and pAKT”. Moreover, in assay [1] (coincident with receptor activation), the “Phosphorylation of Tie 2-responsive proteins MAPK, AKT and eNOS” value was “phosphorylation of several known Tie 2-responsive proteins including MAPK, AKT and eNOS, was observed”. In addition, in assay [2], the “Activation of FAK” value is listed as “no significant effect”. The “Secretion of MMP2 (gelatin degradation, pro and active forms)” value in assay [3] is listed as “dose-dependently degraded gelatin”.
